The results in this text go back to patent US8633232B2, “Compounds, compositions and methods of using same for modulating uric acid levels” (Ardea Biosciences, Inc., priority 2008, dated 2014).

SMILES strings stand for the structures. Counter-ions that a name gives are not always drawn.

Data set [1] relates to healthy adult male human volunteers. The experiment in a line: In vivo uric acid lowering activity, multiple ascending dose placebo-controlled study. On the procedure: 16 healthy male individuals, aged 18-45 years inclusive, with a body mass index (BMI) within 18-30 kg/m^2 inclusive, having provided a written informed consent, non smokers for at least 6 months, not using any drug treatment for 2 weeks before screening (2 months for enzyme-inducing drugs) except occasional Acetaminophen. The individuals were confined at the clinical site beginning the day before dose administration until 72 hours after the final dose administration on Day 17 and returned for a follow-up visit on Day 21±1.
Matching placebo capsules were supplied as size 2 gelatin capsules. Individuals were randomized to receive the same number of placebo capsules as administered to the active individuals.
Capsules (active or placebo) were administered orally with 240 mL water 30 min after a standard breakfast (morning dose) and dinner (evening dose) for 14 days.
16 individuals (8 individuals [6 active and 2 placebo] per dose group). • a. Group 1: Placebo • b. Group 2: 300 mg (3×100-mg capsules) example 1 b.i.d. • c. Group 3: 500 mg (5×100-mg capsules) example 1 b.i.d.
Blood was collected from the individuals on days 0, 3, 7, 14 and at follow-up. Serum uric levels were measured using standard automated procedures. The results are shown in the table below (uric acid levels in μmol/L).

Another data set has as its target T1, hURAT1 Transporter (Homo sapiens, UniProt Q96S37).
T1 construct: Full-length human URAT1 gene (SLC22A12) was subcloned from plasmid pCMV6-XL5
T1 sequence (Q96S37 1-553): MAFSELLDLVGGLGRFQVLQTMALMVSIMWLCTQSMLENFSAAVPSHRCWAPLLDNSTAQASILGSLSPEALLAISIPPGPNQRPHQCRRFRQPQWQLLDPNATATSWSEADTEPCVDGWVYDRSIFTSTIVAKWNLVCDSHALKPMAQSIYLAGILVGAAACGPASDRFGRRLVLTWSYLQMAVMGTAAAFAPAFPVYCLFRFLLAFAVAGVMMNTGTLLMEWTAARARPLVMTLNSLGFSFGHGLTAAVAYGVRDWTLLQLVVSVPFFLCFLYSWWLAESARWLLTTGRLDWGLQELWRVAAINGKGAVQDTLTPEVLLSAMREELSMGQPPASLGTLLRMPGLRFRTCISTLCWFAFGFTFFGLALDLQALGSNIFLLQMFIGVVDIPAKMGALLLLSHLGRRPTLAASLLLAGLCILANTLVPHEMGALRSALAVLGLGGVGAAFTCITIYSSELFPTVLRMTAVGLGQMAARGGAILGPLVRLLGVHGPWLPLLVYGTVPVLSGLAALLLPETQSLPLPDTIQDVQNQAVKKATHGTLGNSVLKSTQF
Put plainly: Uric Acid Uptake Assay. Conditions: HEK293/urat1 cells; C14 Uric Acid 40 μM; 10 minutes at room temperature. The format is cell-based. From the text: Creation of Stable Cell Lines Expressing hURAT1 Transporter: Full-length human URAT1 gene (SLC22A12) was subcloned from plasmid pCMV6-XL5 (Origene) into eukaryotic expression plasmid pCMV6/Neo (Origene) using Not I restriction sites. Gene sequencing confirmed the sequence of hURAT1 as outlined in Genbank (Accession #NM_144585.2). HEK293 human embryonic kidney cells (ATCC#CRL-1573) were propagated in EMEM tissue culture medium as described by ATCC in an atmosphere of 5% CO2 and 95% air. Transfections of HEK293 cells with the pCMV6/Neo/URAT1 construct were performed using L2000 transfection reagent (Invitrogen) as described by the manufacturer. After 24 h the transfected cells were split into 10 cm tissue culture plates and grown for 1 day after which the medium was replaced with fresh growth medium containing G418 (Gibco) at 0.5 mg/ml final concentration. Drug-resistant colonies were selected after approximately 8 days and then tested for ^14C-uric acid transport activity. The HEK293/urat1 cells are plated on Poly-D-Lysine Coated 96-well Plates at a density of 75,000 cells per well.
Cells were grown overnight (20-26 hours) at 37° C. in an incubator. Plates were allowed to come to room temperature and media was washed out with one wash of […] of Wash Buffer (125 mM Na Gluconate, 10 mM Hepes ph 7.3). Compound or vehicle is added in assay buffer with C14 Uric Acid for a final concentration of 40 μM Uric Acid with a specific activity of 54 mCi/mmol. Assay Buffer is 125 mM Sodium Gluconate, 4.8 mM Potassium Gluconate, 1.2 mM Potassium phosphate, monobasic, 1.2 mM magnesium sulfate, 1.3 mM Ca Gluconate, 5.6 mM Glucose, 25 mM HEPES, pH 7.3. Plates were incubated at room temperature for 10 minutes then washed 3 times with 50 μl Wash Buffer and 3 times with 250 μl Wash Buffer. Microscint 20 Scintillation Fluid was added and plates were incubated overnight at 45° C. to equilibrate. Plates are then read on the TopCount Plate Reader and an EC50 value generated. (See Enomoto et al, Nature, 2002, 417, 447-451 and Anzai et al, J. Biol. Chem., 2004, 279, 45942-45950.).
Compounds prepared as described herein, were examined according to the procedure described above and EC50 values generated. […] (N/A means data not available).

Another data set can be described thus: physchem. Conditions: for Solubility: 22° C., 24 hours. As for the experimental part:
When it appeared the saturation point was being reached, addition was stopped, and the eppendorf vial was shaken at a constant speed of 1000 rpm at 22° C. for 24 hours. The tubes were then centrifuged for 5 minutes at 10-15,000 rpm, and checked for precipitation. Samples were diluted with acetonitrile/water, (1/1) (or iso-propyl alcohol for hexane) and analyzed by HPLC against known standards.

Setting [2] is: 300 mg b.i.d. oral, Day 3, n = 6, serum.
Where [3] appears, read: 300 mg b.i.d. oral, Day 7, n = 6, serum.
Where [4] appears, read: 300 mg b.i.d. oral, Day 14, n = 6, serum.
[5] abbreviates: 300 mg b.i.d. oral, Follow up, n = 6, serum.
Where [6] appears, read: 500 mg b.i.d. oral, Day 7, n = 6, serum.
Setting [7] is: 500 mg b.i.d. oral, Day 14, n = 6, serum.
The mark [8] stands for this setting: 500 mg b.i.d. oral, Follow up, n = 6, serum.

Regarding `O=C(CSc1nnc(Br)n1-c1ccc(C2CC2)c2ccccc12)Nc1ccc(C(=O)[O-])cc1Cl.[K+]` [4-(2-(5-bromo-4-(4-cyclopropylnaphthalen-1-yl)-4H-1,2,4-triazol-3-ylthio)acetamido)-3-chlorobenzoic acid, potassium salt], the “Uric acid (μmol/L) MEAN” value is -100.3229 µmol/L in data set [1] (setting [2]); -126.2959 µmol/L in data set [1] (setting [3]); -121.2401 µmol/L in data set [1] (setting [4]); -2.2801 µmol/L in data set [1] (setting [5]); -127.6837 µmol/L in data set [1] (setting [6]); -111.8224 µmol/L in data set [1] (setting [7]). For the same compound, the “Uric acid (μmol/L) MEAN” value in data set [1] (setting [8]) was 27.2617 µmol/L. The “Uric acid (μmol/L) MEDIAN” value was -101.4134 µmol/L in data set [1] (setting [2]); -119.8522 µmol/L in data set [1] (setting [3]); -104.9822 µmol/L in data set [1] (setting [4]); 0.8922 µmol/L in data set [1] (setting [5]); -112.1198 µmol/L in data set [1] (500 mg b.i.d. oral, Day 3, n = 6, serum); -144.2390 µmol/L in data set [1] (setting [6]). For the same compound, the “Uric acid (μmol/L) MEDIAN” value is -124.9080 µmol/L in data set [1] (setting [7]) and 27.3608 µmol/L in data set [1] (setting [8]).

Usually EC50 stands for the concentration that produces a half-maximal response. On hURAT1 Transporter, `CCc1ccc(-n2c(SCC(=O)O)nnc2C(F)F)c2ccccc12` [Example 4, 2-(5-(difluoromethyl)-4-(4-ethylnaphthalen-1-yl)-4H-1,2,4-triazol-3-ylthio)acetic acid] gave a concentration giving a half-maximal response (EC50) of 1 to 30 µM.

The compound `CC(C)(Sc1nnc(N)n1-c1ccc(C2CC2)c2ccccc12)C(=O)O` [Example 5, 2-(5-amino-4-(4-cyclopropylnaphthalen-1-yl)-4H-1,2,4-triazol-3-ylthio)-2-methylpropanoic acid] registered an EC50 on hURAT1 Transporter greater than 30 µM.

As for `CC(C)(Sc1nnc(C(F)(F)F)n1-c1ccc(C2CC2)c2ccccc12)C(=O)O` [Example 9, 2-(4-(4-Cyclopropylnaphthalen-1-yl)-5-(trifluoromethyl)-4H-1,2,4-triazol-3-ylthio)-2-methylpropanoic acid], at hURAT1 Transporter, the EC50 was in the range of 0.001 to 1 µM.

As for `CC(C)(C)OC(=O)C(C)(C)Sc1nnc(Br)n1-c1ccc(C2CC2)c2ccccc12` [Example 101, tert-Butyl 2-(5-bromo-4-(4-cyclopropylnaphthalen-1-yl)-4H-1,2,4-triazol-3-ylthio)-2-methylpropanoate], at hURAT1 Transporter, the half-maximal effective concentration (EC50) is greater than 30 µM.

`COC(=O)CSc1nnc(Br)n1-c1ccc(C2CC2)c2ccccc12` [Example 102, Methyl 2-(5-bromo-4-(4-cyclopropylnaphthalen-1-yl)-4H-1,2,4-triazol-3-ylthio)acetate]: at hURAT1 Transporter, the concentration giving a half-maximal response (EC50) is 1 to 30 µM.

What is called solubility is the dissolved amount per volume that the medium holds. A low value points to a poorly soluble substance. With `O=C(O)CSc1nnc(Br)n1-c1ccc(C2CC2)c2ccccc12` [Example 104, Sodium 2-(5-bromo-4-(4-cyclopropylnaphthalen-1-yl)-4H-1,2,4-triazol-3-ylthio)acetate], the solubility at 24 h in “physchem” (22 °C, pH 4.85, water, thermodynamic from solid, Solubility (mg/mL)) came out at 49200 µg/mL.

One may read the Solubility as how much of the substance goes into solution per volume. Low values mean a poorly soluble substance, high ones a readily soluble substance. As to `O=C(O)CSc1nnc(Br)n1-c1ccc(C2CC2)c2ccccc12` [Piperazine salt, 2-(5-bromo-4-(4-cyclopropylnaphthalen-1-yl)-4H-1,2,4-triazol-3-ylthio)acetate], the “Solubility” value was 260 µg/mL in “physchem” (Acetone); roughly 54000 µg/mL in “physchem” (DMSO); 55 µg/mL in the data set “physchem” (EtOAc); 9100 µg/mL in “physchem” (Ethanol); 1600 µg/mL in the data set “physchem” (IPA); 2400 µg/mL in “physchem” (PEG-400).

The compound `CCOC(=O)CSc1nnc(C(F)(F)F)n1-c1c(C)cc(C)c2c1CCCC2` [ethyl 2-(4-(2,4-dimethyl-5,6,7,8-tetrahydronaphthalen-1-yl)-5-(trifluoromethyl)-4H-1,2,4-triazol-3-ylthio)acetate] displayed a 50% effective concentration (EC50) on hURAT1 Transporter greater than 30 µM.

As for `CCOC(=O)CSc1nncn1-c1ccc(C)c2ccc(C)cc12` [ethyl 2-(4-(4,7-dimethylnaphthalen-1-yl)-4H-1,2,4-triazol-3-ylthio)acetate], on hURAT1 Transporter, the half-maximal effective concentration (EC50) fell in the range of 1 to 30 µM.

In the case of `CCOC(=O)CSc1nnc(C(F)F)n1-c1ccc(CC)c2ccccc12` [ethyl 2-(5-(difluoromethyl)-4-(4-ethylnaphthalen-1-yl)-4H-1,2,4-triazol-3-ylthio)acetate], the EC50 on hURAT1 Transporter was greater than 30 µM.

For the compound `CCOC(=O)CSc1nnc(CF)n1-c1ccc(C)c2c1CCCC2` [ethyl 2-(5-(fluoromethyl)-4-(4-methyl-5,6,7,8-tetrahydronaphthalen-1-yl)-4H-1,2,4-triazol-3-ylthio)acetate], the EC50 at hURAT1 Transporter lay in the range of 1 to 30 µM.

`CCOC(=O)C(C)(C)Sc1nnc(N)n1-c1ccc(C2CC2)c2ccccc12` [ethyl 2-(5-amino-4-(4-cyclopropylnaphthalen-1-yl)-4H-1,2,4-triazol-3-ylthio)-2-methylpropanoate]: the EC50 on hURAT1 Transporter was greater than 30 µM.

The compound `CCOC(=O)C(C)(C)Sc1nnc(Br)n1-c1ccc(C2CC2)c2ccccc12` [ethyl 2-(5-bromo-4-(4-cyclopropylnaphthalen-1-yl)-4H-1,2,4-triazol-3-ylthio)-2-methylpropanoate] came in with a concentration giving a half-maximal response (EC50) on hURAT1 Transporter of 0.001 to 1 µM.

For the compound `CCOC(=O)CCSc1nnc(N)n1-c1ccc(C2CC2)c2ccccc12` [ethyl 3-(5-amino-4-(4-cyclopropylnaphthalen-1-yl)-4H-1,2,4-triazol-3-ylthio)propanoate], the EC50 at hURAT1 Transporter was 1 to 30 µM.

`CCOC(=O)CCSc1nnc(Br)n1-c1ccc(C2CC2)c2ccccc12` [ethyl 3-(5-bromo-4-(4-cyclopropylnaphthalen-1-yl)-4H-1,2,4-triazol-3-ylthio)propanoate] came in with an EC50 at hURAT1 Transporter of 1 to 30 µM.
